In brackets after ≈: the same amount, converted by molar mass. Read-outs that look alike come from different tables or passages of the source.
Assays:
[1] = biological target: T1, SIRT2 (Homo sapiens, UniProt Q8IXJ6); conditions: at 1 mM; Galli et al. (2012); cited from earlier work
T1 sequence (Q8IXJ6 1-389): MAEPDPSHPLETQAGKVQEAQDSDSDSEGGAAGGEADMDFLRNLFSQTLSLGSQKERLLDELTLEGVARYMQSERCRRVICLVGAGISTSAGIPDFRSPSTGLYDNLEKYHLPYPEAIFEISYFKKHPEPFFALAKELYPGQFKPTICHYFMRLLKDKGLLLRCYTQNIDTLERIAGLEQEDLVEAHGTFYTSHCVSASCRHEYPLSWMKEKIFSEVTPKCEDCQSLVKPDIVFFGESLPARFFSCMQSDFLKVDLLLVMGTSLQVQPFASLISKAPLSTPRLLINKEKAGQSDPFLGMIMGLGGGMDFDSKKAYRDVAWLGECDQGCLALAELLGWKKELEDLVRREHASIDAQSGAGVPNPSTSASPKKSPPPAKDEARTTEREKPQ

[2] = biological target: T2, SIRT1 (Homo sapiens, UniProt Q96EB6); conditions: at 1 mM; Galli et al. (2012); cited from earlier work
T2 sequence (Q96EB6 1-747): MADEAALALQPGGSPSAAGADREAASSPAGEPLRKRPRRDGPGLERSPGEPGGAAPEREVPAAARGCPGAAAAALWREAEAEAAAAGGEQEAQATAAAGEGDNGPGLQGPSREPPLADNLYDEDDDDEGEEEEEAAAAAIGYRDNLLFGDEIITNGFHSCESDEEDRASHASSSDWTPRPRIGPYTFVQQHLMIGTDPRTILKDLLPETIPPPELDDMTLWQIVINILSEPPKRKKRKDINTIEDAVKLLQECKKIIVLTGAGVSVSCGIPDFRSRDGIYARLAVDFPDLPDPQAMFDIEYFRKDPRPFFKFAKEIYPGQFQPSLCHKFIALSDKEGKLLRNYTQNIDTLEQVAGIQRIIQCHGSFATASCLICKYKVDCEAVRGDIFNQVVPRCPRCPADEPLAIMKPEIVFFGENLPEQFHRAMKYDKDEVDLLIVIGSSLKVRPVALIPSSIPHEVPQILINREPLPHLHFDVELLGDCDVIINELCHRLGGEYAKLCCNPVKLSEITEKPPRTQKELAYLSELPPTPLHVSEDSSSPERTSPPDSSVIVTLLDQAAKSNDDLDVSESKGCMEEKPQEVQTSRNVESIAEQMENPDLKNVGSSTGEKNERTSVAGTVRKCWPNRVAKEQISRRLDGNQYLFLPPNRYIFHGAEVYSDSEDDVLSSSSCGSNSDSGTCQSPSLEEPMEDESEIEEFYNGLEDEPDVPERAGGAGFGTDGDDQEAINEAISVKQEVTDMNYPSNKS

[3] = test system: sirtuin mediated deacetylation of acetyl-p65; assay: Acetyl-p65 assay in U2OS cells (AlphaScreen); type: cell-based; conditions: FIG. 6
Procedure: In certain embodiments, U2OS cells were counted by hemocytometer and diluted to a concentration of 1.5×10^5 cell/ml. BacMam p65 and BacMam p300-HAT viruses were added to the diluted cells at 1% and 1% (vol/vol). 40 μl aliquots of the cell suspensions containing the viruses were plated onto a 384 well plate with a multi-drop dispenser. After 7 hours, a 2-fold serial dilution of Compounds 25, 28 and Compound 4, hereafter referred to as the test compounds, was carried out in DMSO. The test compounds were subsequently diluted with medium (20-fold) in an intermediate compound plate, and 4 μL of each test compound was transferred by a liquid handler from the intermediate plate to a cell plate. 24 hours post viral transduction, the medium in the cell plate was removed by inverting and flicking the plate, and blotting the plate with paper towels. 30 μl of lysis buffer (25 mM HEPES pH 7.4, 0.5% Triton X-100, 1 mg/ml Dextran 500, 0.1% BSA, 300 mM NaCl, 2 mM MgCl2, 1×protease inhibitor cocktail) was added to each well to lyse the cells. After incubation of the cells with lysis buffer for 30 minutes at room temp, 10 μl and 3 μl aliquots of the cell lysates were transferred to assay plates, and the assay plate containing 3 μl aliquot of cell lysates was diluted with an additional 7 μl of lysis buffer to obtain a final volume of 10 μl. Acetyl-p65 and total p65 protein in cell lysates were measured using the AlphaScreen assay format (PerkinElmer). The antibodies used to detect acetyl-p65 protein were biotinylated anti-HA antibody (Roche, 12158167001) and anti-acetylated K310-p65 antibody (Abcam, ab19870). The antibodies used to detect total p65 protein were biotinylated anti-HA antibody (Roche, 12158167001) and anti-p65 antibody (Santa Cruz, sc109). […] After incubating the plates for another 2 hrs in the dark, the plates were read by a PHERAstar microplate reader. […]

[4] = biological target: T2, SIRT1; assay: SIRT1 deacetylation of Trp 5-mer peptide, OAADPr mass spec assay
Procedure: (§1) All assays were performed at room temperature in reaction buffer (50 mM HEPES, pH 7.5, 150 mM NaCl, 1 mM DTT, 0.05% BSA). […] To prepare the assays for analysis, 20 μL of reaction volume was mixed in 80 μL of 50:50 acetonitrile:methanol mixture. […] Peak data was integrated using RapidFire Integrator software (Agilent, Santa Clara, Calif.).

[5] = biological target: T1, SIRT2; assay: SIRT2 deacetylation of Trp 5-mer peptide, OAADPr mass spec assay; type: biochemical; design: His-SIRT2(1-389)
[6] = biological target: CYP 2C19 (Homo sapiens, UniProt P33261); assay: CYP inhibition 2C19; type: in vitro ADME
Sequence of CYP 2C19 (P33261 whole entry): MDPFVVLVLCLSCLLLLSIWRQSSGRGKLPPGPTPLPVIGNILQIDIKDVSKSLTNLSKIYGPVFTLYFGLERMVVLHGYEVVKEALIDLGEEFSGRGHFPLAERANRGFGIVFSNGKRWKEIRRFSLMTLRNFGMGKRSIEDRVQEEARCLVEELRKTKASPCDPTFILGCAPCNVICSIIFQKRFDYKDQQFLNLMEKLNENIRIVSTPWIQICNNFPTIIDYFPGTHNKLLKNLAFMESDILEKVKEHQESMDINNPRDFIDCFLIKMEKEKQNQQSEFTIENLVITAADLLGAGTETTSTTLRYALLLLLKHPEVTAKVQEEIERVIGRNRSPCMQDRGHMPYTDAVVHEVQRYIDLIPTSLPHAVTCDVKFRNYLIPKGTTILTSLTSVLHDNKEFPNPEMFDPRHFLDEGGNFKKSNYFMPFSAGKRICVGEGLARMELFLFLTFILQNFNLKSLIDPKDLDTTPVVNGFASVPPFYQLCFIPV

[7] = biological target: CYP 3A4 (Homo sapiens, UniProt P08684); assay: CYP inhibition 3A4; type: in vitro ADME
Sequence of CYP 3A4 (P08684 whole entry): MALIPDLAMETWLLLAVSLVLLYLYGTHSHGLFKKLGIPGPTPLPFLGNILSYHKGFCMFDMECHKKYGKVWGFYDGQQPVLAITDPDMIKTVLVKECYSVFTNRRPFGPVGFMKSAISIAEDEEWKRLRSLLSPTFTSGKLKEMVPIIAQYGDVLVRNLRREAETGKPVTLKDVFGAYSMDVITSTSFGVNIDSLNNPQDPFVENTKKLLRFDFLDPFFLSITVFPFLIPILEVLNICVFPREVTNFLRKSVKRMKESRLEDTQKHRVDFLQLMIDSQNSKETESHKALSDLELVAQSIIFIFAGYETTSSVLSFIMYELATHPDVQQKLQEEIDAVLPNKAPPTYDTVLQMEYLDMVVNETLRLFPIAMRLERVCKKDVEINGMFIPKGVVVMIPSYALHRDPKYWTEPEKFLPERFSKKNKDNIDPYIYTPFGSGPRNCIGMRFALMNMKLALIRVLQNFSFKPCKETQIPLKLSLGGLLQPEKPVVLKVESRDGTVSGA

[8] = biological target: T3, CYP 1A2 (Homo sapiens, UniProt P05177); assay: CYP inhibition 1A2; type: in vitro ADME
T3 sequence (P05177 1-516): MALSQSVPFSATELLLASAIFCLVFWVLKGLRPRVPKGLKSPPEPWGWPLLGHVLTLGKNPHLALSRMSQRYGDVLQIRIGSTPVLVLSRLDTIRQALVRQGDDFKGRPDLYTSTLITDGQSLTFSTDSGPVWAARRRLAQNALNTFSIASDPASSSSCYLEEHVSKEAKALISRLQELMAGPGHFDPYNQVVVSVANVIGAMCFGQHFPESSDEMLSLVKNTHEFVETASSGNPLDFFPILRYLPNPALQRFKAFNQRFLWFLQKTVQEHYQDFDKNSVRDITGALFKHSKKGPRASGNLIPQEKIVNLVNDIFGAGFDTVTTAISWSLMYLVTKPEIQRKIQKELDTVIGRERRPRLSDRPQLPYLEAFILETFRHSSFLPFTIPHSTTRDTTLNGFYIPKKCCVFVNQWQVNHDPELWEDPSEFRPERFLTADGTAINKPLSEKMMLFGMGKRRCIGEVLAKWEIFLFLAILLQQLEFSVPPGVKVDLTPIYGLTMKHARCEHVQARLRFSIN

[9] = Kinetic solubility by chemi-luminescent nitrogen detection (CLND); type: physicochemical; conditions: aqueous buffer, kinetic from dmso stock, DMSO stock incubated 1 hr in phosphate buffered saline pH 7.4, filtered
[10] = Stability in mouse microsomes; type: in vitro ADME
[11] = HPLC based lipophilicity assay (CHI LogD); type: physicochemical; conditions: CHI values by reverse phase HPLC transformed to a LogD scale
[12] = Stability in human microsomes; type: in vitro ADME
[13] = biological target: CYP 2D6 (Homo sapiens, UniProt P10635); assay: CYP inhibition 2D6; type: in vitro ADME
Sequence of CYP 2D6 (P10635 whole entry): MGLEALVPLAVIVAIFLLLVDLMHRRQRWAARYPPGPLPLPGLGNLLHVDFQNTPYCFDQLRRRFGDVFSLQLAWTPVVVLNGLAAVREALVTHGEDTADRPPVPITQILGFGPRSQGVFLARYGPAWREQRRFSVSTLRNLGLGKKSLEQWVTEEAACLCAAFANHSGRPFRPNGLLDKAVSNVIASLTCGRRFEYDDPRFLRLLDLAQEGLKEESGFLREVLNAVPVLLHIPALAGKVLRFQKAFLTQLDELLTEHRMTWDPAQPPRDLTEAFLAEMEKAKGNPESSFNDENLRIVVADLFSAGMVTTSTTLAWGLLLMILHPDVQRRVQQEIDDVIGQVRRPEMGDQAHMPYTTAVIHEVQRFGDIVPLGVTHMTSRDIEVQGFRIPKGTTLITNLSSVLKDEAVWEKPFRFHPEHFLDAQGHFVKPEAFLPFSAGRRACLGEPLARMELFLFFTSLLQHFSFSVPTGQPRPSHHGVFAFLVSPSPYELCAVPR

[14] = biological target: T4, SIRT3 (Homo sapiens, UniProt Q9NTG7); assay: SIRT3 deacetylation of Trp 5-mer peptide, OAADPr mass spec assay
T4 sequence (Q9NTG7 102-399): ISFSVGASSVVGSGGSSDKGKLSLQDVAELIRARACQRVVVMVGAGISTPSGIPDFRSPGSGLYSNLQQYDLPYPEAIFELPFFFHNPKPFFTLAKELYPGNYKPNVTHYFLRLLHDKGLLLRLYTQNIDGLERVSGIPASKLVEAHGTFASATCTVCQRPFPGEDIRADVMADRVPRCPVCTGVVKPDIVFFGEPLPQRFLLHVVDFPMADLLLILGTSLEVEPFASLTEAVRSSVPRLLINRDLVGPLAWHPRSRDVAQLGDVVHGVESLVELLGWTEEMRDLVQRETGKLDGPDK
Procedure: as §1

[15] = test system: SIRT1/2/3; assay: SIRT1/2/3 biochemical assay, statements spanning all three enzymes; design: species or system human; conditions: compared to Compound 28; range across the three enzymes
[16] = Trp SIRT1_IC50, Trp 5-mer peptide, class symbols
[17] = read-out: IC50 (μM) SIRT1, Trp 5-mer peptide and NAD at KM, mean of at least three determinations
[18] = Trp 5-mer peptide and NAD at KM, mean of at least three determinations, read-out: IC50 (μM) SIRT2
[19] = Trp 5-mer peptide, class symbols, read-out: Trp SIRT2_IC50

Row | SMILES | inhibition of sirtuin mediated deacetylation of acetyl-p65 [3] | IC50 [4, 16] | IC50 [4, 17] | IC50 [5, 18] | IC50 [5, 19] | other results
1 | c1cncc(-c2c[nH]nn2)c1 [3-(1H-1,2,3-triazol-4-yl)pyridine] |  |  |  |  |  | SIRT2 activity remaining [1]: 92%; SIRT1 activity remaining [2]: 88%
2 | NC(=O)C1CCCc2c1[nH]c1ccc(Cl)cc21 (stereo not shown) [4, EX-527, EX-527, reference compound] | inhibit |  |  |  |  | 
3 | CC(=S)NCCC1CCN(c2ncnc3cc(C(N)=O)sc23)CC1 [Compound 25, 4-(4-(2-ethanethioamidoethyl)piperidin-1-yl)thieno[3,2-d]pyrimidine-6-carboxamide] | inhibit | < 1 µM | 0.056 µM | 0.03 µM |  | IC50 ([5]; Trp SIRT2_IC50, Trp 5-mer peptide, class symbols): < 1 µM
4 | CC(C)(C)C(=O)NCCC1CCN(c2ncnc3cc(C(N)=O)sc23)CC1 [Compound 28, 4-(4-(2-pivalamidoethyl)piperidin-1-yl)thieno[3,2-d]pyrimidine-6-carboxamide] | inhibit | < 1 µM | 0.015 µM | 0.01 µM | < 1 µM | CYP 2C19 [6]: > 50 µM; CYP 3A4 [7]: > 50 µM; CYP 1A2 [8]: > 50 µM; solubility at 1 hr [9]: 297 µM (≈ 116 µg/mL); Mouse CLint [10]: 12.7 µL/min/mg; LogD [11]: 2.73; Human CLint [12]: 15.8 µL/min/mg; CYP 2D6 [13]: > 50 µM
5 | CC(C)(C)C(=O)NCCC1CCN(c2nccc3cc(C(N)=O)sc23)CC1 [Compound 38, 7-(4-(2-pivalamidoethyl)piperidin-1-yl)thieno[2,3-c]pyridine-2-carboxamide] |  | < 1 µM | 0.49 µM | 0.3 µM | < 1 µM | IC50 ([14]; Trp SIRT3_IC50, Trp 5-mer peptide, class symbols): 1 to 10 µM; IC50 ([14]; read-out: IC50 (μM) SIRT3, Trp 5-mer peptide and NAD at KM, mean of at least three determinations): 2.1 µM; fold reduction in SIRT1/2/3 potency [15]: 30-63 fold
